Here are results for one compound from paper doi:10.1101/2023.10.25.564053v1 (biorxiv, 2023).

Structures are written as SMILES.

One assay deals with BsAK (Bacillus subtilis, UniProt P16304). Kind of assay: microscale thermophoresis, amine-labelled protein. In kind it is binding. For orientation: Microscale thermophoresis detects binding through changes in fluorescence in a small temperature gradient.
The target of another assay is GsAK (Geobacillus stearothermophilus, UniProt P27142). In words: microscale thermophoresis, amine-labelled protein. In kind it is binding.
Chain of GsAK (P27142 whole entry): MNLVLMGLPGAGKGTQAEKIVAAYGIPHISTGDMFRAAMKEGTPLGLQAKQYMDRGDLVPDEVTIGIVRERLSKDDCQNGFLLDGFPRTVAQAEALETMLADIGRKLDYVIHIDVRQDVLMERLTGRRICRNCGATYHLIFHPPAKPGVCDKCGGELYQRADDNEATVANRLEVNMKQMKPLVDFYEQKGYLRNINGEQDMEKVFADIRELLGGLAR

Chain of BsAK (P16304 whole entry): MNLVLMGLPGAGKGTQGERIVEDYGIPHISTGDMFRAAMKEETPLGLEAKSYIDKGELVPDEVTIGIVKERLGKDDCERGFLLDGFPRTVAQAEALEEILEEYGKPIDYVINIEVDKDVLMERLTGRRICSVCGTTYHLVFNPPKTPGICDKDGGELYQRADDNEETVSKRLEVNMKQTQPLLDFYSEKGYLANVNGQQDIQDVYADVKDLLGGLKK

The term Kd denotes the concentration at which binding is half-saturated. In the case of `Nc1ncnc2c1ncn2[C@@H]1O[C@H](COP(=O)(O)OP(=O)(O)OP(=O)(O)OP(=O)(O)OP(=O)(O)OC[C@H]2O[C@@H](n3cnc4c(N)ncnc43)[C@H](O)[C@@H]2O)[C@@H](O)[C@H]1O` [Ap5A], the Kd at BsAK is 25.1 ± 1.1 nM; on GsAK it was 17 ± 5.7 nM.
